Assay results from patent publication US20030105158A1, “Hydrates of a neuraminic acid compound and crystalline forms thereof” (SANKYO COMPANY, LIMITED, priority 2000, published 2003).
Structures can show the parent of a compound that is named as a salt.

Experiment: Stability test (storage stability, residual amount by HPLC)
Format: physicochemical
Conditions: relative to initial content (100%)
Description: In the stability test, the crystals of the compound (I) of the present invention prepared in Example 1 and as reference, the amorphous powder (trifluoroacetate salt) of compound (I) described in Example 35 of the specification of Japanese Patent Application Publication No. Hei 10-330373 were used. These compounds were stored separately at 40° C. in a desiccator with a relative humidity of 75% for 56 days (8 weeks), and the content of these compounds was measured on 14 (2 weeks), 28 (4 weeks) and 56 days (8 weeks) after the initiation of the storage.
Furthermore, these compounds were also stored separately at 60° C. in a desiccator with silica gel for 56 days (8 weeks), and the content of these compounds was measured in the same manner as that described above.
The contents of these compounds were determined quantitatively with high performance liquid chromatography (HPLC), and the amount of the remaining compounds (%) at each sampling point was calculated based on the initial content (100%) determined immediately before the storage.

[1] = stored at 40° C. in a desiccator with a relative humidity of 75%, 14 days
[2] = stored at 40° C. in a desiccator with a relative humidity of 75%, 28 days
[3] = stored at 40° C. in a desiccator with a relative humidity of 75%, 56 days
[4] = stored at 60° C. in a desiccator with silica gel, 14 days
[5] = stored at 60° C. in a desiccator with silica gel, 28 days
[6] = stored at 60° C. in a desiccator with silica gel, 56 days

Compound | Residual amount (amount of the remaining compound) [1] [%] | Residual amount (amount of the remaining compound) [2] [%] | Residual amount (amount of the remaining compound) [3] [%] | Residual amount (amount of the remaining compound) (stored at 40° C. in a desiccator with a relative humidity of 75%, 56 days, listed as amorphous powder (trifluoacetate salt) of compound (I)) [%] | Residual amount (amount of the remaining compound) [4] [%] | Residual amount (amount of the remaining compound) [5] [%] | Residual amount (amount of the remaining compound) [6] [%] | Residual amount (amount of the remaining compound) (stored at 60° C. in a desiccator with silica gel, 56 days, listed as amorphous powder (trifluoacetate salt) of compound (I)) [%] | Residual amount (amount of the remaining compound) (stored at 40° C. in a desiccator with a relative humidity of 75%, 56 days, listed as crystals (hydrated crystals) of compound (I)) [%] | Residual amount (amount of the remaining compound) (stored at 60° C. in a desiccator with silica gel, 56 days, listed as crystals (hydrated crystals) of compound (I))
CCCCCCCC(=O)OC[C@@H](O)[C@@H](OC)[C@@H]1OC(C(=O)O)=C[C@H](NC(=N)N)[C@H]1NC(C)=O [Amorphous powder of compound (I), trifluoroacetate salt of 5-acetamido-4-guanidino-9-O-octanoyl-2,3,4,5-tetradeoxy-7-O-methyl-D-glycero-D-galacto-non-2-enopyranosonic acid] | 38.5 | 27.2 | 10.2 | 10.2 | 95.7 | 92.9 | 89.0 | 89 |  | 
CCCCCCCC(=O)OC[C@@H](O)[C@@H](OC)[C@@H]1OC(C(=O)O)=C[C@H](NC(=N)N)[C@H]1NC(C)=O [Hydrated crystal of compound (I), 5-Acetamido-4-guanidino-9-O-octanoyl-2,3,4,5-tetradeoxy-7-O-methyl-D-glycero-D-galacto-non-2-enopyranosonic Acid Hydrate in Crystalline Form] | 99.8 | 100.2 | 100.3 |  | 99.9 | 100.6 | 99.6 |  | 100 | more than 99%
